target: T1, human α1G T-type channels (Homo sapiens, UniProt O43497); assay: T-type calcium channel block, whole cell patch clamp in HEK cells (α1G); type: cell-based; details: HEK cells, patch clamp, mainly non-inactivated protocol; values above 10 μM shown as 10 μM, below 0.30 μM shown as 0.30 μM; read-out: T-type Calcium Channel Block α1G IC50
T1 construct: expressed in transfected cells; host or cells: HEK 293
Experimental: T-type calcium channel blocking activity was assayed in human embryonic kidney cells, HEK 293, stably transfected with the T-type calcium channel subunits. Briefly, cells were cultured in Dulbecco's modified eagle medium (DMEM) supplemented with 10% fetal bovine serum, 200 U/ml penicillin and 0.2 mg/ml streptomycin at 37° C. with 5% CO2. At 85% confluency cells were split with 0.25% trypsin/1 mM EDTA and plated at 10% confluency on glass coverslips. […] Fresh DMEM was supplied and the cells transferred to 28° C./5% CO2. Cells were incubated for 1 to 2 days prior to whole cell recording.
Standard patch-clamp techniques were employed to identify blockers of T-type currents. Briefly, previously described HEK cell lines stably expressing human α1G, α1H and α1I T-type channels were used for all the recordings (passage #: 4-20, 37° C., 5% CO2). Whole cell patch clamp experiments were performed using an Axopatch 200B amplifier (Axon Instruments, Burlingame, Calif.) linked to a personal computer equipped with pCLAMP software. Data were analyzed using Clampfit (Axon Instruments) and SigmaPlot 4.0 (Jandel Scientific). To obtain T-type currents, plastic dishes containing semi-confluent cells were positioned on the stage of a ZEISS AXIOVERT S100 microscope after replacing the culture medium with external solution (see below). Whole-cell patches were obtained using pipettes (borosilicate glass with filament, O.D.: 1.5 mm, I.D.: 0.86 mm, 10 cm length), fabricated on a SUTTER P-97 puller with resistance values of ˜5 MΩ (see below for internal solution).
In the non-inactivating protocol, the holding potential is set at −110 mV and with a pre-pulse at −100 mV for 1 second prior to the test pulse at −40 mV for 50 ms.
Test compounds were dissolved in external solution, 0.1-0.01% DMSO. After ˜10 min rest, they were applied by gravity close to the cell using a WPI microfil tubing. The “non-inactivated” pre-pulse was used to examine the resting block of a compound. The “inactivated” protocol was employed to study voltage-dependent block. […] Values are shown in μM and values above 10 μM are simply represented as 10 μM.

T1 sequence (O43497 whole entry): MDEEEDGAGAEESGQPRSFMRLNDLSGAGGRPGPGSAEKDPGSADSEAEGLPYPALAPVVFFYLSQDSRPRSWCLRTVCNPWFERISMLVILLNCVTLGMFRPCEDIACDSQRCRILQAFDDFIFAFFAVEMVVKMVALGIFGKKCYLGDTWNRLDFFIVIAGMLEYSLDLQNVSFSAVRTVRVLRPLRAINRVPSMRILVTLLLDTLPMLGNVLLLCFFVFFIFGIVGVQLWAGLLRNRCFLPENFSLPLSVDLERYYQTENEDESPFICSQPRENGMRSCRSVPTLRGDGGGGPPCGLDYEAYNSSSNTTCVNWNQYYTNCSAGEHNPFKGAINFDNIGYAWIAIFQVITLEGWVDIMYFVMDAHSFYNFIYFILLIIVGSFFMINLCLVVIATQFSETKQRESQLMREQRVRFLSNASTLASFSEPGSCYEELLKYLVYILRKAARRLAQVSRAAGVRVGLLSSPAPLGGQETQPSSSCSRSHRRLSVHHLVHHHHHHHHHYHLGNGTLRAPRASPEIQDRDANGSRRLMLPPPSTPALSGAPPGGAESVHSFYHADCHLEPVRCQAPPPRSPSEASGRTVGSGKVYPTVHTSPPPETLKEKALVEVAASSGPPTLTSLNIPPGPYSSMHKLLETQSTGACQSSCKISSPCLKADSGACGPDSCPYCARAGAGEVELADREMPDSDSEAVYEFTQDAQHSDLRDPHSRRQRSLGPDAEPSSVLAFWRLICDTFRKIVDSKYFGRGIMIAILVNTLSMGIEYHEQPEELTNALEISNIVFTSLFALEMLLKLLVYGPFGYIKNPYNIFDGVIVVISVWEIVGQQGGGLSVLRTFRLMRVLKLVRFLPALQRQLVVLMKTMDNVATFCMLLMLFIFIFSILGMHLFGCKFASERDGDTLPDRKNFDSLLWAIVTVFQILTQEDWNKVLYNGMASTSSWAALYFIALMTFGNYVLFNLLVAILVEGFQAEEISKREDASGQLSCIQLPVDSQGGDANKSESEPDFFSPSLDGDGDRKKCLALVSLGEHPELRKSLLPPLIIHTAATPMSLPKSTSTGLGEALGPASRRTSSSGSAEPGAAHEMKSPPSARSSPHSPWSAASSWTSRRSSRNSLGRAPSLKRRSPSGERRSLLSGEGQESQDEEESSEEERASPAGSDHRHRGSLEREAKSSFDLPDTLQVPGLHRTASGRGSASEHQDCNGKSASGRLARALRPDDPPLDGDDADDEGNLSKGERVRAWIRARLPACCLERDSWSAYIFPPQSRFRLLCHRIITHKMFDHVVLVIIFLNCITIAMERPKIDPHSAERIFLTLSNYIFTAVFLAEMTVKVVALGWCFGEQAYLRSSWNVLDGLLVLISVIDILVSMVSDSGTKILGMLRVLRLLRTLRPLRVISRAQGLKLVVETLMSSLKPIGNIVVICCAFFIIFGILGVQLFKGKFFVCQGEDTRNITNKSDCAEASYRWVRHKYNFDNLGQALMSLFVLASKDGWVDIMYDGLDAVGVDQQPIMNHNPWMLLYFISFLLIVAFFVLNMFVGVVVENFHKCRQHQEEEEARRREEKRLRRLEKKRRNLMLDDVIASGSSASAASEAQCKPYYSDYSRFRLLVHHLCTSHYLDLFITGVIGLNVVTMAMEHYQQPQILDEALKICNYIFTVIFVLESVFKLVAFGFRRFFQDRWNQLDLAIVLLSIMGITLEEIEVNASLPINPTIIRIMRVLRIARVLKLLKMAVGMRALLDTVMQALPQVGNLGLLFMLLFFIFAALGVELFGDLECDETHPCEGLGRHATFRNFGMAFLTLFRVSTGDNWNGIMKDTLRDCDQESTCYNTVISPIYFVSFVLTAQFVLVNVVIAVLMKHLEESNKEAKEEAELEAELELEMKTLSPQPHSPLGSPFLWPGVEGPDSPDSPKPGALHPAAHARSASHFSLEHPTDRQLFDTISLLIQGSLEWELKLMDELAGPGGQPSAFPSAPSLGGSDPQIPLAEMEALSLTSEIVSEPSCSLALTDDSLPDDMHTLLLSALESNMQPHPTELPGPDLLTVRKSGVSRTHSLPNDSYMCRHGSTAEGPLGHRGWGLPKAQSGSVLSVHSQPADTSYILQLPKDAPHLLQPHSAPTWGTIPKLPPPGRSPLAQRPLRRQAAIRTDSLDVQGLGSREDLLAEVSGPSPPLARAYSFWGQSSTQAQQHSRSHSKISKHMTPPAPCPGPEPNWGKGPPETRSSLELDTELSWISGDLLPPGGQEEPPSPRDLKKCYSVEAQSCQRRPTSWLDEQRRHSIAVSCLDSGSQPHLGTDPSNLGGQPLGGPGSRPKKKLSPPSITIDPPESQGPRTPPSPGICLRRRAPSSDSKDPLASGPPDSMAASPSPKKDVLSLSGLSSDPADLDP

Row | Structure (SMILES) | IC50 [µM]
1 | CN(CC1CCN(CCNC(=O)C(C)(C)C)CC1)C(=O)c1cc(F)cc(C(F)(F)F)c1 [Compound 412, 3-fluoro-N-methyl-N-((1-(2-pivalamidoethyl)piperidin-4-yl)methyl)-5-(trifluoromethyl)benzamide] | > 10
2 | O=C(NCC1CCN(CCNC(=O)C2CCCC2)CC1)c1cccc(Br)c1 [Compound 400, 3-bromo-N-((1-(2-(cyclopentanecarboxamido)ethyl)piperidin-4-yl)methyl)benzamide] | 1.5
3 | Cc1cc(C)cc(C(=O)NCC2CCN(CCNC(=O)C3CCCC3)CC2)c1 [Compound 392, N-((1-(2-(cyclopentanecarboxamido)ethyl)piperidin-4-yl)methyl)-3,5-dimethyl-benzamide] | 2.01
4 | CC(C)(C)C(N)CN1CCC(CC(=O)NCc2cc(Cl)cc(Cl)c2)CC1 (centres unmarked) [Compound 201, 2-(1-(2-amino-3,3-dimethylbutyl)piperidin-4-yl)-N-(3,5-dichlorobenzyl) acetamide] | > 10
5 | CC(C)(C)OC(=O)NCCN1CCC(CNC(=O)c2cccc(S(C)(=O)=O)c2)CC1 [Compound 45, tert-butyl 2-(4-((3-(methylsulfonyl)benzamido)methyl)piperidin-1-yl)ethylcarbamate] | > 10
6 | CC(C)(C)OC(=O)NCCN1CCC(CNC(=O)c2ccccc2C(F)(F)F)CC1 [Compound 53, tert-butyl 2-(4-((2-(trifluoromethyl)benzamido)methyl)piperidin-1-yl)ethylcarbamate] | > 10
7 | Cc1cc(F)cc(C(=O)NCC2CCN(CCNC(=O)C3CCCC3)CC2)c1 [Compound 393, N-((1-(2-(cyclopentanecarboxamido)ethyl)piperidin-4-yl)methyl)-3-fluoro-5-methylbenzamide] | 6.04
8 | O=C(NCC1CCN(CCNC(=O)C2CCCC2)CC1)c1cc(Br)cc(Br)c1 [Compound 409, 3,5-dibromo-N-((1-(2-(cyclopentanecarboxamido)ethyl)piperidin-4-yl)methyl)benzamide] | < 0.3
9 | O=C(NCC1CCN(CCNC(=O)C2CCCC2)CC1)c1cccc(OC(F)(F)F)c1 [Compound 401, N-((1-(2-(cyclopentanecarboxamido)ethyl)piperidin-4-yl)methyl)-3-(trifluoromethoxy)benzamide] | 0.91
10 | CC(C)(C)OC(=O)NCCN1CCC(CNC(=O)c2ccc(F)cc2F)CC1 [Compound 51, tert-butyl 2-(4-((2,4-difluorobenzamido)methyl)piperidin-1-yl)ethylcarbamate] | > 10
11 | CC(C)(C)C(O)CN1CCC(CC(=O)Nc2nc3ccccc3[nH]2)CC1 (centres unmarked) [Compound 166, N-(1H-benzo[d]imidazol-2-yl)-2-(1-(2-hydroxy-3,3-dimethylbutyl)piperidin-4-yl)acetamide] | > 10
12 | O=C(NCC1CCN(CCNC(=O)C2CCCC2)CC1)c1cccc(Cl)c1 [Compound 394, 3-chloro-N-((1-(2-(cyclopentanecarboxamido)ethyl)piperidin-4-yl)methyl)benzamide] | 4.61
13 | O=C(NCC1CCN(CCNC(=O)C2CCCC2)CC1)c1cc(Cl)cc(Br)c1 [Compound 406, 3-bromo-5-chloro-N-((1-(2-(cyclopentanecarboxamido)ethyl)piperidin-4-yl)methyl)benzamide] | < 0.3
14 | CC(C)(C)C(O)CN1CCC(CC(=O)NCCc2ccc(F)cc2)CC1 (centres unmarked) [Compound 177, N-(4-fluorophenethyl)-2-(1-(2-hydroxy-3,3-dimethylbuyl)piperidin-4-yl)acetamide] | > 10
15 | CC(C)(C)OC(=O)NC(CN1CCC(CC(=O)NCCc2c[nH]c3ccccc23)CC1)C(C)(C)C (centres unmarked) [Compound 197, tert-butyl 1-(4-(2-(2-(1H-indol-3-yl)ethylamino)-2-oxoethyl)piperidin-1-yl)-3,3-dimethylbutan-2-ylcarbamate] | > 10
16 | NC1(C(=O)N2CCC(CC(=O)Nc3cc(C(F)(F)F)cc(C(F)(F)F)c3)CC2)CCOCC1 [Compound 194, 2-(1-(4-aminotetrahydro-2H-pyran-4-carbonyl)piperidin-4-yl)-N-(3,5-bis(trifluoromethyl)phenyl)acetamide] | > 10

The next lines start with the values.

Row | IC50 [µM] | Structure (SMILES)
17 | 2.08 | CC(C)(C)C(=O)N1CCC[C@H]1CN1CCC(CNC(=O)c2cc(F)cc(C(F)(F)F)c2)CC1 [Compound 423, (S)-3-fluoro-N-((1-((1-pivaloyl-pyrrolidin-2-yl)methyl)piperidin-4-yl)methyl)-5-(trifluoromethyl) benzamide]
18 | 1.15 | CC(C)(C)NC(=O)N1CCC[C@H]1CN1CCC(CNC(=O)c2cc(F)cc(C(F)(F)F)c2)CC1 [Compound 410, (S)-N-tert-butyl-2-((4-((3-fluoro-5-(trifluoromethyl)benzamido)methyl)piperidin-1-yl)methyl)pyrrolidine-1-carboxamide]
19 | 4.27 | CCC(O)(C(=O)N1CCC(CNC(=O)c2cc(C(F)(F)F)cc(C(F)(F)F)c2)CC1)C(C)(C)C (centres unmarked) [Compound 90, N-((1-(2-ethyl-2-hydroxy-3,3-dimethylbutanoyl)piperidin-4-yl)methyl)-3,5-bis(trifluoromethyl)benzamide]
20 | > 10 | NC1(C(=O)N2CCC(CNC(=O)c3cc(C(F)(F)F)cc(C(F)(F)F)c3)CC2)CCCCC1 [Compound 86, N-((1-(1-aminocyclohexanecarbonyl)piperidin-4-yl)methyl)-3,5-bis(trifluoromethyl) benzamide]
21 | < 0.3 | O=C(NCC1CCN(C[C@@H]2CCCN2C(=O)C2CCCC2)CC1)c1cc(F)cc(C(F)(F)F)c1 [Compound 425, (S)-N-((1-((1-(cyclopentanecarbonyl)pyrrolidin-2-yl)methyl)piperidin-4-yl)methyl)-3-fluoro-5-(trifluoromethyl)benzamide]
22 | < 0.3 | O=C(NCC1CCN(CCNC(=O)C2CCCC2)CC1)c1cc(Cl)cc(C(F)(F)F)c1 [Compound 405, 3-chloro-N-((1-(2-(cyclopentanecarboxamido)ethyl)piperidin-4-yl)methyl)-5-(trifluoromethyl)benzamide]
23 | > 10 | O=C(NCC1CCN(C(=O)CNCCCN2CCOCC2)CC1)c1cc(F)cc(C(F)(F)F)c1 [Compound 270, 3-fluoro-N-((1-(2-(3-morpholinopropylamino)acetyl)piperidin-4-yl)methyl)-5-(trifluoromethyl)benzamide]
24 | > 10 | CC(C)(C)C(O)C(=O)N1CCC(CNC(=O)c2cc(C(F)(F)F)cc(C(F)(F)F)c2)CC1 (centres unmarked) [Compound 91, N-((1-(2-hydroxy-3,3-dimethylbutanoyl)piperidin-4-yl)methyl)-3,5-bis(trifluoromethyl)benzamide]
25 | 9.49 | CCS(=O)(=O)N1CCC[C@H]1CN1CCC(CNC(=O)c2cc(F)cc(C(F)(F)F)c2)CC1 [Compound 417]
26 | > 10 | CS(=O)(=O)N1CCC[C@H]1CN1CCC(CNC(=O)c2cc(F)cc(C(F)(F)F)c2)CC1 [Compound 416, (S)-3-fluoro-N-((1-((1-(methylsulfonyl)pyrrolidin-2-yl)methyl)piperidin-4-yl)methyl)-5-(trifluoromethyl)benzamide]
27 | < 0.3 | O=C(NCC1CCN(CCNC(=O)C2CCCC2)CC1)c1cc(Br)cc(C(F)(F)F)c1 [Compound 407, 3-bromo-N-((1-(2-(cyclopentanecarboxamido)ethyl)piperidin-4-yl)methyl)-5-(trifluoromethyl)benzamide]
28 | 1.93 | O=C(NCC1CCN(C[C@@H]2CCCN2S(=O)(=O)CCC(F)(F)F)CC1)c1cc(F)cc(C(F)(F)F)c1 [Compound 422, (S)-3-fluoro-5-(trifluoromethyl)-N-((1-((1-(3,3,3-trifluoropropyl-sulfonyl)pyrrolidin-2-yl)methyl)piperidin-4-yl)methyl) benzamide]
29 | 1.63 | O=C(NCC1CCN(C[C@@H]2CCCN2S(=O)(=O)C2CCC2)CC1)c1cc(F)cc(C(F)(F)F)c1 [Compound 419, (S)-N-((1-((1-(cyclobutylsulfonyl)pyrrolidin-2-yl)methyl)piperidin-4-yl)methyl)-3-fluoro-5-(trifluoromethyl)benzamide]
30 | > 10 | O=C(NCC1CCN(CCNC(=O)C2CCCC2)CC1)c1cc(F)cc(F)c1 [Compound 395, N-((1-(2-(cyclopentanecarboxamido)ethyl)piperidin-4-yl)methyl)-3,5-difluoro-benzamide]
31 | > 10 | CN(CC1CCN(CCNC(=O)NC(C)(C)C)CC1)C(=O)c1cc(F)cc(C(F)(F)F)c1 [Compound 411, N-((1-(2-(3-tert-butylureido)ethyl)piperidin-4-yl)methyl)-3-fluoro-N-methyl-5-(trifluoromethyl)benzamide]
32 | 0.38 | COc1cc(C(=O)NCC2CCN(CCNC(=O)C3CCCC3)CC2)cc(C(F)(F)F)c1 [Compound 404, N-((1-(2-(cyclopentanecarboxamido)ethyl)piperidin-4-yl)methyl)-3-methoxy-5-(trifluoromethyl)benzamide]

From patent US8569344B2, “N-piperidinyl acetamide derivatives as calcium channel blockers” (Zalicus Pharmaceuticals Ltd., priority 2008, dated 2013)
